According to patent US10787450B2 (BRISTOL-MYERS SQUIBB COMPANY, priority 2016, dated 2020):
Where a name gives a salt, the structure may show the parent alone.

Biological target: ROCK2 (Homo sapiens (Human), UniProt O75116)
Assay: ROCK2 kinase inhibition assay (FITC peptide substrate, LABCHIP 3000 Reader)
Assay type: biochemical
Conditions: 5 μM ATP, 1.5 μM peptide substrate
In short: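 Reaction in 20 mM HEPES pH 7.5, 20 mM MgCl2, 0.015% Brij-35, 4 mM DTT with 5 μM ATP and 1.5 μM FITC-AHA-AKRRRLSSLRA-OH peptide, started with Rho kinase, DMSO <2%. EDTA-stopped; phospho and non-phospho peptide separated by mobility shift. IC50 from dose-response curve fit.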

ROCK2, sequence (O75116 whole entry, species assumed): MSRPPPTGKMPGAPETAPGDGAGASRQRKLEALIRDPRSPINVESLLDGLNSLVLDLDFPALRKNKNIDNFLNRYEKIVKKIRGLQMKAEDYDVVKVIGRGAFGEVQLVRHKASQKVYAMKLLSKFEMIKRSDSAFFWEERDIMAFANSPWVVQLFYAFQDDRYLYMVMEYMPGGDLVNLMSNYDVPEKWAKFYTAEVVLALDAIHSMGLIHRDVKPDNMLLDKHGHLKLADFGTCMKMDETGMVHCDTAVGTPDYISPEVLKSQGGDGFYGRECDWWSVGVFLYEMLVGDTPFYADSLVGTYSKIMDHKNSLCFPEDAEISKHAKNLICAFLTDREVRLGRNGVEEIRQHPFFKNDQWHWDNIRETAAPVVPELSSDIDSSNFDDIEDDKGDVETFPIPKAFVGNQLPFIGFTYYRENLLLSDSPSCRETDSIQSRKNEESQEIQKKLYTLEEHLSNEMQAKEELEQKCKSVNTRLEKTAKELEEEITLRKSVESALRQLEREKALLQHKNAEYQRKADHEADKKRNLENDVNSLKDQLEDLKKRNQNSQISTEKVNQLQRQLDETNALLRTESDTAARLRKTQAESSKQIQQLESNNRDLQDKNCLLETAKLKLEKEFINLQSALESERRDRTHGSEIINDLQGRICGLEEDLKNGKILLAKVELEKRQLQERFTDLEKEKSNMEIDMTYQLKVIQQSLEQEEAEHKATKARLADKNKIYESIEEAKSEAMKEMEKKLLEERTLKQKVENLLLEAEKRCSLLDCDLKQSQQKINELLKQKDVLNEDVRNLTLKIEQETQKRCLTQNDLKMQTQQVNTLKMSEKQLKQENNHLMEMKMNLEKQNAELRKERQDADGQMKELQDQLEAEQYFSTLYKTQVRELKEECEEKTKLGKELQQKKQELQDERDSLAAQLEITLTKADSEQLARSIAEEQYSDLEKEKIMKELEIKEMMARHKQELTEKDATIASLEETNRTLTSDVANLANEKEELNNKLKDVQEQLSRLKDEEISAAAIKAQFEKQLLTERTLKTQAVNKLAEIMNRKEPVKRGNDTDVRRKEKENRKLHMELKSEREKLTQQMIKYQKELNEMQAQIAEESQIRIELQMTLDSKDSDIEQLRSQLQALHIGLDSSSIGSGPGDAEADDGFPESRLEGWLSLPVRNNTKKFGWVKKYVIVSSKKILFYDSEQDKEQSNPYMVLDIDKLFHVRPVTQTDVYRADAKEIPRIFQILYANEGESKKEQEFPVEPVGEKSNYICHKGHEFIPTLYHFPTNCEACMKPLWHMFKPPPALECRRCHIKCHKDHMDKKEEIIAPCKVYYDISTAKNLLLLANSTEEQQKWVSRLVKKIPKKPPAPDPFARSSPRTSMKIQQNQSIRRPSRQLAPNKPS

Compound	IC50
CC(=O)N1CCC2(CC1)CN(c1ccc(-c3cn[nH]c3)cc1)C(=O)N2Cc1ccc(F)cc1C [Example 80, 3-(4-(1H-pyrazol-4-yl)phenyl)-8-acetyl-1-(4-fluoro-2-methylbenzyl)-1,3,8-triazaspiro[4.5]decan-2-one]	3 to 30 nM
COC(=O)N1CCC2(CC1)CN(c1ncc(-c3cn[nH]c3)c(OC)n1)C(=O)N2Cc1cccc(OC)c1 [Example 111, methyl 3-(4-methoxy-5-(1H-pyrazol-4-yl)pyrimidin-2-yl)-1-(3-methoxybenzyl)-2-oxo-1,3,8-triazaspiro[4.5]decane-8-carboxylate]	3 to 30 nM
O=C1N(c2ccc(-c3cn[nH]c3)cc2)CC2(CCOCC2)N1Cc1cccc(Cl)c1 [Example 16, 3-(4-(1H-pyrazol-4-yl)phenyl)-1-(3-chlorobenzyl)-8-oxa-1,3-diazaspiro[4.5]decan-2-one]	3 to 30 nM
CCc1nc(N2CC3(CCN(CC(C)O)CC3)N(Cc3cccc(F)c3C)C2=O)ccc1-c1cn[nH]c1 (stereo not shown) [Example 156, 3-(6-ethyl-5-(1H-pyrazol-4-yl)pyridin-2-yl)-1-(3-fluoro-2-methylbenzyl)-8-(2-hydroxypropyl)-1,3,8-triazaspiro[4.5]decan-2-one]	< 3 nM
COc1cccc(CN2C(=O)N(c3ccc(-c4cn[nH]c4)cc3)CC23CCOCC3)c1 [Example 9, 3-(4-(1H-pyrazol-4-yl)phenyl)-1-(3-methoxybenzyl)-8-oxa-1,3-diazaspiro[4.5]decan-2-one]	< 3 nM
COc1cccc(CN2C(=O)N(c3ccc(-c4cn[nH]c4)cc3)CC23CCN(CC(C)O)CC3)c1 (single isomer, unassigned) [Example 140, 3-(4-(1H-pyrazol-4-yl)phenyl)-8-(2-hydroxypropyl)-1-(3-methoxybenzyl)-1,3,8-triazaspiro[4.5]decan-2-one]	< 3 nM
COCCOC(=O)N1CCC2(CC1)CN(c1ccc(-c3cn[nH]c3)cc1)C(=O)N2Cc1cccc(OC)c1 [Example 98, 2-methoxyethyl 3-(4-(1H-pyrazol-4-yl)phenyl)-1-(3-methoxybenzyl)-2-oxo-1,3,8-triazaspiro[4.5]decane-8-carboxylate]	< 3 nM
O=C(NCC1CC1)c1cccc(CN2C(=O)N(c3ccc(-c4cn[nH]c4)cc3)CC23CCOCC3)c1 [Example 37, 3-((3-(4-(1H-pyrazol-4-yl)phenyl)-2-oxo-8-oxa-1,3-diazaspiro[4.5]decan-1-yl)methyl)-N-(cyclopropylmethyl)benzamide]	< 3 nM
COc1cccc(CN2C(=O)N(c3ncc(-c4cn[nH]c4)c(OC)n3)CC23CCN(CC(C)(C)O)CC3)c1 [Example 163, 8-(2-hydroxy-2-methylpropyl)-3-(4-methoxy-5-(1H-pyrazol-4-yl)pyrimidin-2-yl)-1-(3-methoxybenzyl)-1,3,8-triazaspiro[4.5]decan-2-one]	3 to 30 nM
CN(C(=O)c1cccc(CN2C(=O)N(c3ccc(-c4cn[nH]c4)cc3)CC23CCOCC3)c1)C1CC1 [Example 45, 3-((3-(4-(1H-pyrazol-4-yl)phenyl)-2-oxo-8-oxa-1,3-diazaspiro[4.5]decan-1-yl)methyl)-N-cyclopropyl-N-methylbenzamide]	< 3 nM
CC(=O)N1CCC2(CC1)CN(c1ccc(-c3cn[nH]c3)cc1)C(=O)N2Cc1cc(F)ccc1F [Example 78, 3-(4-(1H-pyrazol-4-yl)phenyl)-8-acetyl-1-(2,5-difluorobenzyl)-1,3,8-triazaspiro[4.5]decan-2-one]	30 to 250 nM
COc1cccc(CN2C(=O)N(c3ccc(-c4cn[nH]c4)cc3)CC23CCN(CC(N)=O)CC3)c1 [Example 169, 2-(3-(4-(1H-pyrazol-4-yl)phenyl)-1-(3-methoxybenzyl)-2-oxo-1,3,8-triazaspiro[4.5]decan-8-yl)acetamide]	< 3 nM
O=C1N(c2ccc(-c3cn[nH]c3)cc2)CC2(CCOCC2)N1Cc1cc(F)cc(F)c1 [Example 24, 3-(4-(1H-pyrazol-4-yl)phenyl)-1-(3,5-difluorobenzyl)-8-oxa-1,3-diazaspiro[4.5]decan-2-one]	3 to 30 nM
COc1cccc(CN2C(=O)N(c3ccc(-c4cn[nH]c4)cc3)CC23CC[N+]([O-])(CCO)CC3)c1 (stereo not shown) [Example 145, 3-(4-(1H-pyrazol-4-yl)phenyl)-8-(2-hydroxyethyl)-1-(3-methoxybenzyl)-2-oxo-1,3,8-triazaspiro[4.5]decane 8-oxide]	< 3 nM
COc1cccc(CN2C(=O)N(c3ccc(-c4cn[nH]c4)cc3)CC23CCN(CC2CCCC2)CC3)c1 [Example 118, 3-(4-(1H-pyrazol-4-yl)phenyl)-8-(cyclopentylmethyl)-1-(3-methoxybenzyl)-1,3,8-triazaspiro[4.5]decan-2-one]	< 3 nM
COc1cccc(CN2C(=O)N(c3ccc(-c4cn[nH]c4)c(OC)n3)CC23CCN(CC(F)F)CC3)c1 [Example 135, 8-(2,2-difluoroethyl)-3-(6-methoxy-5-(1H-pyrazol-4-yl)pyridin-2-yl)-1-(3-methoxybenzyl)-1,3,8-triazaspiro[4.5]decan-2-one]	< 3 nM
COc1cc(CN2C(=O)N(c3ccc(-c4cn[nH]c4)cc3)CC23CC3)ccc1F [Example 6, 6-(4-(1H-pyrazol-4-yl)phenyl)-4-(4-fluoro-3-methoxybenzyl)-4,6-diazaspiro[2.4]heptan-5-one]	< 3 nM
O=C1N(c2ccc(-c3cn[nH]c3)cc2)CC2(CCOCC2)N1Cc1ccccc1F [Example 12, 3-(4-(1H-pyrazol-4-yl)phenyl)-1-(2-fluorobenzyl)-8-oxa-1,3-diazaspiro[4.5]decan-2-one]	30 to 250 nM
O=C1N(c2ccc(-c3cn[nH]c3)cc2)CC2(CCOCC2)N1Cc1cccc(C(F)(F)F)c1 [Example 18, 3-(4-(1H-pyrazol-4-yl)phenyl)-1-(3-(trifluoromethyl)benzyl)-8-oxa-1,3-diazaspiro[4.5]decan-2-one]	30 to 250 nM

Continued, values first:

IC50	Compound
< 3 nM	COc1cccc(CN2C(=O)N(c3ccc(-c4cn[nH]c4)cc3)CC23CCN(C(=O)C2CCOCC2)CC3)c1 [Example 173, 3-(4-(1H-pyrazol-4-yl)phenyl)-1-(3-methoxybenzyl)-8-(tetrahydro-2H-pyran-4-carbonyl)-1,3,8-triazaspiro[4.5]decan-2-one, TFA]
3 to 30 nM	COc1cccc(CN2C(=O)N(c3ccc(-c4cn[nH]c4)cn3)CC23CCN(C(=O)CO)CC3)c1 [Example 195, 3-(5-(1H-pyrazol-4-yl)pyridin-2-yl)-8-(2-hydroxyacetyl)-1-(3-methoxybenzyl)-1,3,8-triazaspiro[4.5]decan-2-one]
250 to 3000 nM	COc1cccc(NC2C(=O)N(c3ccc(-c4cn[nH]c4)cc3)CC23CCN(CCO)CC3)c1 (stereo not shown) [Example 252, 2-(4-(1H-pyrazol-4-yl)phenyl)-8-(2-hydroxy-ethyl)-4-((3-methoxy-phenyl)amino)-2,8-diazaspiro [4.5]decan-3-one]
< 3 nM	CCc1nc(N2CC3(CCN(C(=O)[C@H]4CC4(F)F)CC3)N(Cc3cccc(OC)c3)C2=O)ccc1-c1cn[nH]c1 [Example 217, (R)-8-(2,2-difluorocyclopropane-carbonyl)-3-(6-ethyl-5-(1H-pyrazol-4-yl)pyridin-2-yl)-1-(3-methoxybenzyl)-1,3,8-triazaspiro[4.5]decan-2-one]
3 to 30 nM	COc1cccc(CN2C(=O)N(c3ncc(-c4cn[nH]c4)c(OC)n3)CC23CCN(C(=O)[C@@H]2CC2(F)F)CC3)c1 [Example 213, (S)-8-(2,2-difluorocyclopropane-carbonyl)-3-(4-methoxy-5-(1H-pyrazol-4-yl)pyrimidin-2-yl)-1-(3-methoxybenzyl)-1,3,8-triazaspiro[4.5]decan-2-one]
< 3 nM	CCc1nc(N2CC3(CCN(C(=O)C4COC4)CC3)N(Cc3cccc(OC)c3)C2=O)ccc1-c1cn[nH]c1 [Example 185, 3-(6-ethyl-5-(1H-pyrazol-4-yl)pyridin-2-yl)-1-(3-methoxybenzyl)-8-(oxetane-3-carbonyl)-1,3,8-triazaspiro[4.5]decan-2-one]
< 3 nM	CCc1nc(N2CC3(CCN(C(=O)C4CC(F)(F)C4)CC3)N(Cc3cccc(OC)c3)C2=O)ccc1-c1cn[nH]c1 [Example 202, 8-(3,3-difluorocyclobutane-carbonyl)-3-(6-ethyl-5-(1H-pyrazol-4-yl)pyridin-2-yl)-1-(3-methoxybenzyl)-1,3,8-triazaspiro[4.5]decan-2-one]
< 3 nM	COc1cccc(CN2C(=O)N(c3ncc(-c4cn[nH]c4)c(OC)n3)CC23CCN(C(=O)CN(C)C)CC3)c1 [Example 210, 8-(2-(dimethylamino)acetyl)-3-(4-methoxy-5-(1H-pyrazol-4-yl)pyrimidin-2-yl)-1-(3-methoxybenzyl)-1,3,8-triazaspiro[4.5]decan-2-one]
30 to 250 nM	COc1cccc(CN2C(=O)N(c3ncc(-c4cn[nH]c4)c(OC)n3)CC23CCN(C(=O)C(C)(C)CO)CC3)c1 [Example 211, 8-(3-hydroxy-2,2-dimethylpropanoyl)-3-(4-methoxy-5-(1H-pyrazol-4-yl)pyrimidin-2-yl)-1-(3-methoxybenzyl)-1,3,8-triazaspiro[4.5] decan-2-one]
250 to 3000 nM	COc1cccc(NC2C(=O)N(c3ccc(-c4cn[nH]c4)cn3)CC23CCN(C(=O)Cc2csc(C)n2)CC3)c1 (stereo not shown) [Example 257, 2-(5-(1H-pyrazol-4-yl)pyridin-2-yl)-4-((3-methoxy-phenyl)amino)-8-(2-(2-methyl-thiazol-4-yl)acetyl)-2,8-diazaspiro [4.5]decan-3-one]
250 to 3000 nM	COC(=O)N1CCC2(CC1)CN(c1ccc(-c3cn[nH]c3)cc1)C(=O)C2Nc1cccc(OC)c1 (stereo not shown) [Example 251, methyl 2-(4-(1H-pyrazol-4-yl)phenyl)-4-((3-methoxy-phenyl)amino)-3-oxo-2,8-diazaspiro [4.5]decane-8-carboxylate]
< 3 nM	COc1cccc(CN2C(=O)N(c3ccc(-c4cn[nH]c4)c(OC)n3)CC23CCN(C(=O)CO)CC3)c1 [Example 220, 8-(2-hydroxyacetyl)-3-(6-methoxy-5-(1H-pyrazol-4-yl)pyridin-2-yl)-1-(3-methoxybenzyl)-1,3,8-triazaspiro[4.5]decan-2-one]
